From US20100227853A1, “INHIBITORS OF CYCLIC AMP PHOSPHODIESTERASES” (Trustees of Boston College, priority 2008, published 2010)

Assays:
PDE4D2-FL = target: T1, PDE4D2-FL (Homo sapiens, UniProt Q08499); assay: in vitro enzyme assay, full-length PDE4D2 (residues 1-507); format: biochemical; conditions: read-out: IC50 (or AC200), PDE4D2-FL
T1 construct: 1-507; made in house; host or cells: E. coli

PDE7A [1] = target: T2, PDE7A (Homo sapiens, UniProt Q13946); assay: in vitro enzyme assay PDE7A; format: biochemical; parameters: made in house; host or cells: E. coli; conditions: for IC50: E. coli expressed and purified enzyme, read-out: IC50 (or AC200), PDE7A
PDE7B [2] = target: T3, PDE7B (Homo sapiens, UniProt Q9NP56); assay: in vitro enzyme assay, PDE7B catalytic domain from E. coli, hydrolysis of cAMP to AMP; format: biochemical; parameters: The PDE7B catalytic domain was expressed in and purified from E. coli; made in house; host or cells: E. coli; conditions: for IC50: AC200 = [Compound] that doubles PDE activity, read-out: IC50 (or AC200), PDE7B
Experimental: The PDE7B catalytic domain was expressed in and purified from E. coli and tested for activity in an in vitro enzyme assay, measuring the hydrolysis of cAMP to AMP. Four dilutions of the enzyme preparation were tested at various compound concentrations (X axis). The percent of cAMP hydrolyzed is plotted on the Y axis.
Target sequence in this assay (Q9NP56 97-420 limits assumed, species assumed): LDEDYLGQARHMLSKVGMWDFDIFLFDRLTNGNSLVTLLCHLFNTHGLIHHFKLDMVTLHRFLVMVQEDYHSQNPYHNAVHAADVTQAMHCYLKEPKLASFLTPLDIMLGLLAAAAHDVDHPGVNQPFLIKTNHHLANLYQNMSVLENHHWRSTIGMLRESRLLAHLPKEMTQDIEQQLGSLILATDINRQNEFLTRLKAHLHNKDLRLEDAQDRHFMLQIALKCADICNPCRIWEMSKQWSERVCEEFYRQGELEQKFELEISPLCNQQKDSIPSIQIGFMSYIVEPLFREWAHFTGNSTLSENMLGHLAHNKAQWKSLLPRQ

PDE7B [3] = target: T3, PDE7B; assay: 5FOA growth assay in fission yeast strain expressing PDE7B; format: cell-based; parameters: targets used in the assays are full-length proteins (as opposed to simply the catalytic domain); expressed in transfected cells; host or cells: Schizosaccharomyces pombe
Experimental: (§1) PDE inhibition allows growth in 5FOA medium as measured by optical density after 48 hours incubation at 30° C. Compound BC12 and six structural analogs were tested for growth stimulation.
(§2) Cells were pregrown in EMM medium [MP Biomedicals (Solon, Ohio), 3% glucose, filter-sterilized to avoid carmelization, which would introduce variability into the optical density of the medium] containing from 0 mM to 2.5 mM cAMP (or either 0.5 mM or 1.0 mM cGMP). This was to repress expression of the fbp1-ura4 reporter prior to exposure of cells to 5FOA medium. Cells were grown at 30° C. to exponential phase (approximately 10^7 cells/ml). Cells were collected by centrifugation and resuspended in 5FOA medium, and 25 μl were transferred to 384-well microtiter dishes (untreated, with flat clear bottoms) that had been pre-filled with 25 μl 5FOA medium and pre-pinned with 100 nl of compounds (stock solutions were generally 10 mM). Starting cell concentrations ranged from 0.5×10^5 to 4×10^5 cells/ml depending on the screening strain. […] Other positive control dishes contained 5 mM cAMP in the 5FOA medium for PDEs that lack appropriate control compounds. Cultures were grown for 48 hours at 30° C., sealed in an airtight container with moist paper towels to prevent evaporation. Optical densities (OD600) of cultures were measured using a microplate reader. Bioinformatic analysis of the results to determine composite Z scores was performed as previously described (1, 3).
Target sequence in this assay (Q9NP56 whole entry, species assumed, the tested form may be a part): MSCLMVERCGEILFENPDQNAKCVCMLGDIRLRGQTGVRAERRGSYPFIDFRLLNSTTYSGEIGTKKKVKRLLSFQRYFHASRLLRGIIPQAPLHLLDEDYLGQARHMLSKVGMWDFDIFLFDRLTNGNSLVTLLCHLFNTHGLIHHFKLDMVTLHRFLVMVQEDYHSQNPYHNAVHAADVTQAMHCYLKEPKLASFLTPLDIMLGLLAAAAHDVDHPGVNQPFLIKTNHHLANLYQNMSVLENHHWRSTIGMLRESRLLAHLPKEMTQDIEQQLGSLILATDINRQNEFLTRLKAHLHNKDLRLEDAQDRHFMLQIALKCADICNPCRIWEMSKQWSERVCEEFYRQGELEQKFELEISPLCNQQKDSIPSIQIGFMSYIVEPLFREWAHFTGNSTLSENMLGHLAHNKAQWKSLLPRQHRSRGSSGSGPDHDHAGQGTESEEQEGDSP

PDE7A [4] = target: T2, PDE7A; assay: 5FOA growth assay in fission yeast strain expressing PDE7A; format: cell-based; parameters: targets used in the assays are full-length proteins (as opposed to simply the catalytic domain); expressed in transfected cells; host or cells: Schizosaccharomyces pombe, PDE gene integrated in place of cgs2
Experimental: as §1, §2

PDE4A = PDE4A (Homo sapiens, UniProt P27815); assay: in vitro enzyme assay PDE4A (Table 7); format: biochemical; conditions: 2 micromolar compound; read-out: percent of PDE activity present, PDE4A
PDE4B = PDE4B (Homo sapiens, UniProt Q07343); assay: in vitro enzyme assay PDE4B (Table 7); format: biochemical; conditions: 2 micromolar compound; read-out: percent of PDE activity present, PDE4B
PDE4D = PDE4D (Homo sapiens, UniProt Q08499); assay: in vitro enzyme assay PDE4D (Table 7); format: biochemical; conditions: 2 micromolar compound; read-out: percent of PDE activity present, PDE4D
PDE4D2-CAT = target: T4, PDE4D2-CAT (Homo sapiens, UniProt Q08499); assay: in vitro enzyme assay, catalytic fragment of PDE4D2 (residues 86-413); format: biochemical
T4 construct: 86-413; made in house; host or cells: E. coli

U937 cells = assay: TNF alpha release by LPS-treated U937 cells; format: cell-based; conditions: for TNF alpha, % vehicle control: 10 uM cmpd, 0 uM BC30
PDE4B2 = PDE4B2 (Homo sapiens, UniProt Q07343); assay: in vitro enzyme assay, E. coli expressed and purified PDE4B2; format: biochemical; parameters: targets used in the assays are full-length proteins (as opposed to simply the catalytic domain); conditions: read-out: IC50 (or AC200), PDE4B2
PDE7B [5] = target: T5, PDE7B (Rattus norvegicus, UniProt A0A0G2JXU0); assay: in vitro enzyme assay of PDE7B activity in extracts from rat pulmonary endothelial cells; format: biochemical
T5 construct: endogenous in cells; host or cells: rat pulmonary endothelial cells (extract)
T5 sequence (A0A0G2JXU0 1-446): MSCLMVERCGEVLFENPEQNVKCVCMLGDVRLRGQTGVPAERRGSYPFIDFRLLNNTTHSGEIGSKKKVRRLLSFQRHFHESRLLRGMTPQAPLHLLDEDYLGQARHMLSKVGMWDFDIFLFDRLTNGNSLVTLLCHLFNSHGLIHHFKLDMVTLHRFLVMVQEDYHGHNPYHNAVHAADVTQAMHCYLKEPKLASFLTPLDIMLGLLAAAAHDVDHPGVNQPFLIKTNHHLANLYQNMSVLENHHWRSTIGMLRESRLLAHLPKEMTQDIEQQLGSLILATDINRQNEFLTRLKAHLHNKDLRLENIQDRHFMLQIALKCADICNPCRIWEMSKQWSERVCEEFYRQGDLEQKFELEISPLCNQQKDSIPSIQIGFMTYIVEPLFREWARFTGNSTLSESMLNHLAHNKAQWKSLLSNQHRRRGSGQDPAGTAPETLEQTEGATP
Excerpt: FIG. 13 is the in vitro enzyme assays of PDE7B activity in extracts made from rat pulmonary endothelial cells.

Lymphoma cells = assay: in vitro assay on lymphoma cells (24 hours, Hoechst stain, fsc/ssc); format: cell-based
Experimental: FIGS. 6A and 6B show the in vitro assay of BC54 action. Lymphoma cells are treated with the drug for 24 hours, then stained with Hoechst dye. The cells form a clearly defined population on the fsc/ssc dot plot. Vincristine treatment was used as a positive control. […] BC54 is referred to in the figure as S54.

CLL = CLL assay; format: cell-based
[6] = system: PDE4A, PDE4B, PDE4D, PDE7A, PDE7B, PDE8A, PDE3A; assay: Summary of PDE inhibitor profile
[7] = optical density after 48 hours at 30° C.

T4 sequence (Q08499 388-715): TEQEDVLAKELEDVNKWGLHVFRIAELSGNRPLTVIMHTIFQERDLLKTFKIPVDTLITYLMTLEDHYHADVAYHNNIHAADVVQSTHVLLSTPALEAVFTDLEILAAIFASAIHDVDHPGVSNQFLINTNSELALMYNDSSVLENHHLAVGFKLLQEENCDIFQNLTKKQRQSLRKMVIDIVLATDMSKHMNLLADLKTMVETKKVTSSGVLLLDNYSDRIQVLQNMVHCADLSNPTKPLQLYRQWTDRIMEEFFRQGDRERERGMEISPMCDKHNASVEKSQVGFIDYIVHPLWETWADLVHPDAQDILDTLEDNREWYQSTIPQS
T2 sequence (Q13946 whole entry, the tested form may be a part): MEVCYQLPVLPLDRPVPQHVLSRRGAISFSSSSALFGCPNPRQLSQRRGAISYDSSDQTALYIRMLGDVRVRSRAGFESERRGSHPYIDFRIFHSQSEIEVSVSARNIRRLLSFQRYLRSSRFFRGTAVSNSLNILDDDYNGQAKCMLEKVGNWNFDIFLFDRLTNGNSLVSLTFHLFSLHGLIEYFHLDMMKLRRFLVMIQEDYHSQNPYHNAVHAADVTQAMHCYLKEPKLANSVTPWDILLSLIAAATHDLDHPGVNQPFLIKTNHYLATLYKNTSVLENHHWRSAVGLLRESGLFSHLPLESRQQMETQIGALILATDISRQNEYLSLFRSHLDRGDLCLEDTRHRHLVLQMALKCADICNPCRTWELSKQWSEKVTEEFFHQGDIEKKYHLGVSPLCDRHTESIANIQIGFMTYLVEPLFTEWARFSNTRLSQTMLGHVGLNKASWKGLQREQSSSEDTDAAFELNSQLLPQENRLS
PDE4D, sequence (Q08499 whole entry, the tested form may be a part): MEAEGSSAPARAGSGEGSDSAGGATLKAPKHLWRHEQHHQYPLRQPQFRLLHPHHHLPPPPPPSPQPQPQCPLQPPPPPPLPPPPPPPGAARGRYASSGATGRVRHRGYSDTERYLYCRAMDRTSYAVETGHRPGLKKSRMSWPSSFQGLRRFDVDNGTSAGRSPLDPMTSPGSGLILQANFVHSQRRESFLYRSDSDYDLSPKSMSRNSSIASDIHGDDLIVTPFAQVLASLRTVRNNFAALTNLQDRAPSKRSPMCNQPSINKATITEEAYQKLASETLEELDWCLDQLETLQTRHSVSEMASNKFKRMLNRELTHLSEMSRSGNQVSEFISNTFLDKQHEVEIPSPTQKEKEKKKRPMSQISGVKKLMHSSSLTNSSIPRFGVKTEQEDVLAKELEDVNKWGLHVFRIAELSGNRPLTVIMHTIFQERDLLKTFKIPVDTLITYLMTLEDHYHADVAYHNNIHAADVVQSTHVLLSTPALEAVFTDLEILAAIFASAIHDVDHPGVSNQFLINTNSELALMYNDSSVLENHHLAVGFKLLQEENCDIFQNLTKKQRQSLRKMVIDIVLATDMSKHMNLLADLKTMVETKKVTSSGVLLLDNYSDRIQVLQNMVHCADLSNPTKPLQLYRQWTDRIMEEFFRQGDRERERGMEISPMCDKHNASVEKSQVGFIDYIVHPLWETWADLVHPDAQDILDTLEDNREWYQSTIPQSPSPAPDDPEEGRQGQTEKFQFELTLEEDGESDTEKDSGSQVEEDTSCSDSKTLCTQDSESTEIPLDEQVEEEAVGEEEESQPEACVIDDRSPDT
PDE4B2, sequence (Q07343 1-564 isoform Q07343-2, species assumed): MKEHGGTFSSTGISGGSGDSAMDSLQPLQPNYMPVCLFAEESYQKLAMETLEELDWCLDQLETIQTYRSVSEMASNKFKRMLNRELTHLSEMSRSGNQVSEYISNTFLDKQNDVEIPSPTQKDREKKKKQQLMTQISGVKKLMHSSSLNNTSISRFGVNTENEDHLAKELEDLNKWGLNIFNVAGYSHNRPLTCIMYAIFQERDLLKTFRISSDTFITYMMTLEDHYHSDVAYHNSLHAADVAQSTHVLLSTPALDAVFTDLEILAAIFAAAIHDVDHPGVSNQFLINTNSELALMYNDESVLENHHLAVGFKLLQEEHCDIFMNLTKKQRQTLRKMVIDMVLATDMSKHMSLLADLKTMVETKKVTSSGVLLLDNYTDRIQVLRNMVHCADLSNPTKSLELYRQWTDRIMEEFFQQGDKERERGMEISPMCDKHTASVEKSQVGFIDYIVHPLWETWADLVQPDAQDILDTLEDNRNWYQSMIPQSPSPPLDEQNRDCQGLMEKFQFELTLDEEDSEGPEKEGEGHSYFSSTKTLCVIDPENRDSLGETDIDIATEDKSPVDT
PDE4A, sequence (P27815 whole entry, species assumed): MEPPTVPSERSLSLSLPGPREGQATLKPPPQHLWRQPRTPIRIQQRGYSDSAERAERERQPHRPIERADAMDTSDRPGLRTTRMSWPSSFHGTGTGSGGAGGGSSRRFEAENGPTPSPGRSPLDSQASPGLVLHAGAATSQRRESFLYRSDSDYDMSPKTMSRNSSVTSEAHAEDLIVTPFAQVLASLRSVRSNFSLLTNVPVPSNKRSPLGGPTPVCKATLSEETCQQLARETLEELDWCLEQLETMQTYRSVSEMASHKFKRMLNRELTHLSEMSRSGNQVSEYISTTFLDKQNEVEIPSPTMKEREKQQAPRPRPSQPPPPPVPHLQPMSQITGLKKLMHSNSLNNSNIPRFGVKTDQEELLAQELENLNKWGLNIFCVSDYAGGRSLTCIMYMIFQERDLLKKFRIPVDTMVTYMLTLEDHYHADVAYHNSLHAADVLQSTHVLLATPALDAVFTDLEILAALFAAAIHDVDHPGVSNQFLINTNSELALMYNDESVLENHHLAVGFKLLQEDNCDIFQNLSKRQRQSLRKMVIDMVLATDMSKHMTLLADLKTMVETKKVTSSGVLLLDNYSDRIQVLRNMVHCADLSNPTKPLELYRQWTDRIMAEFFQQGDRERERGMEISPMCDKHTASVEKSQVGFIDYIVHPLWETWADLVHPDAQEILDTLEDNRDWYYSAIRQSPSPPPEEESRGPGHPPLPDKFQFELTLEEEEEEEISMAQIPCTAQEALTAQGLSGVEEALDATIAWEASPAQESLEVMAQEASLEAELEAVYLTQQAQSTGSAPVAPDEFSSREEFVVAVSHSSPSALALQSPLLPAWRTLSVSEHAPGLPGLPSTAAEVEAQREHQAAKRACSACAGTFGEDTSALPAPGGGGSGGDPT
T1 sequence (Q08499 303-809): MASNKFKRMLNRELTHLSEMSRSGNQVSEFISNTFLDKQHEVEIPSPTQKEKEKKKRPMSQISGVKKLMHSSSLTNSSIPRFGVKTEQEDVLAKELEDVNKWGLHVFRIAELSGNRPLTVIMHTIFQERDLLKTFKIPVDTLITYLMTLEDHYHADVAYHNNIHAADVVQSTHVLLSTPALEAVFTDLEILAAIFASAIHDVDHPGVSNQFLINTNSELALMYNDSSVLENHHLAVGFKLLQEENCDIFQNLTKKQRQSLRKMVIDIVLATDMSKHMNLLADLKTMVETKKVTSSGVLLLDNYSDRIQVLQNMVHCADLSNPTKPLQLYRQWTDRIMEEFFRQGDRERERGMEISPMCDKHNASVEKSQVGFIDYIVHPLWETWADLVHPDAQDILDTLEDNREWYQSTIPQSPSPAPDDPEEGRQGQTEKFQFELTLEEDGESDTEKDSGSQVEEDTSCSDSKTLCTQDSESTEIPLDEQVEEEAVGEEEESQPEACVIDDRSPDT

Cc1ccc([N+](=O)[O-])cc1S(=O)(=O)N(C)C [BRL50481, reference compound]
IC50 (PDE4D2-FL): > 20 µM | IC50 (PDE7A [1]): 0.2 µM | IC50 (PDE7B [2]): 18 µM | EC50 (PDE7B [3]; OD600 0.6, read-out: ED50 for 5FOA growth assays, PDE7B): 42 µM | EC50 (PDE7A [4]; OD600 0.6, read-out: ED50 for 5FOA growth assays, PDE7A): 1.3 µM

Cc1c(C(=O)Nc2ccc(F)cc2F)sc2ncnc(N3CCC(C)CC3)c12 [Compound 58]
remaining activity at 2 µM (PDE4A): 31% | remaining activity at 2 µM (PDE4B): 16% | remaining activity at 2 µM (PDE4D): 31% | IC50 (PDE4D2-CAT; catalytic fragment, AC200 = [Compound] that doubles PDE activity, read-out: IC50 (or AC200), PDE4D2-CAT): < 2 µM | TNF (U937 cells; 3 HOURS): 3345 pg/mL | TNF, % EtOH cntrl (U937 cells; 3 HOURS): 69.2% | TNF (U937 cells; 20 HOURS): 10030 pg/mL | TNF, % EtOH cntrl (U937 cells; 20 HOURS): 73.3% | TNF alpha, % vehicle control (U937 cells; after 3 h.): 61.2% | TNF alpha, % vehicle control (U937 cells; after 20 h.): 53.8% | remaining activity at 2 µM (PDE7A [1]; 2 micromolar compound, read-out: percent of PDE activity present, PDE7A): 68% | IC50 (PDE7A [1]): > 2 µM | IC50 (PDE4B2): 1.5 µM | IC50 (PDE7B [2]): > 2 µM

CN(C)c1ccc(/C=C/C=C2/C(=O)NC(=O)N(c3ccccc3)C2=O)cc1 [BC12]
PDE4D catalytic domain, 2 uM cpm (PDE4D2-CAT; 2 uM compound): 3686 cpm | activity at 2 µM (PDE4D2-CAT; 2 micromolar compound, DMSO = 100, read-out: In vitro activation of PDE4D catalytic domain, % activity): 133% | inhibition of PDE7B from pulmonary endothelial cells, in words (PDE7B [5]): potent inhibitor | Ki (PDE7B [5]; KI on PDE7 (PDE7B) from rat pulmonary endothelial cells, cell extracts): ~0.2 µM | KI lower than that of BRL50481 (PDE7B [5]; PDE7B, rat pulmonary endothelial cell extracts): approximately 100 fold | TNF alpha reduction, conclusion in words (U937 cells): shows activity | apoptosis of lymphoma cells, in words (Lymphoma cells): apoptosis effect | activity in CLL assay, in words (CLL): shows activity | PDE inhibitor profile, in words [6]: PDE7 inhibitor that appears to activate PDE4D and PDE7B in vitro (not in vivo) | PDE7B, 2 uM cpm (PDE7B [2]; 2 uM compound): 2388 cpm | effect on cAMP hydrolysis by PDE7B in vitro, in words (PDE7B [2]; E. coli-expressed catalytic domain): increases cAMP hydrolysis | 5FOA growth response, PDE7B strain, in words (PDE7B [3]; [7]): most potent inhibitor, promoting growth at low micromolar concentrations | 5FOA growth response, PDE7A strain, in words (PDE7A [4]; [7]): most potent inhibitor, promoting growth at low micromolar concentrations
